Data on seven compounds can be found in US20210330611A1, “THERAPY FOR NEUROLOGICAL DISEASES/DISORDERS” (priority 2020, published 2021).

Structures can show the parent of a compound that is named as a salt. Where two headings read alike, the source gives them in different places.

Series [1] deals with fibrin-induced microglia activation. The series is described as follows: Image-based assay of fibrin-induced microglia activation (HTS and dose response). The note with it: for IC50 / inhibition at 10 µM: Rattus norvegicus, Microglia; for inhibition at 10 µM: read-out: Fibrin % inhibition. The format is cell-based, rat.
Series [2] relates to LPS-induced microglia activation. The experiment in a line: Image-based assay of LPS-induced microglia activation (HTS and dose response). Format: cell-based, rat. The settings on record: Rattus norvegicus, Microglia; for inhibition at 10 µM: read-out: LPS % inhibition.
Series [3] relates to fibrin- and LPS-induced microglia activation. The experiment in a line: cells. The settings on record: for inhibition at 10 µM: Rattus norvegicus. Format: cell-based, rat.
The nature of series [4]: in vitro. The settings on record: rat, Cell Toxicity IC50 (uM) [cFib assay].
Series [5] can be described thus: in vitro. The settings on record: rat.
In series [6] the test system is primary rat microglia. The experiment in a line: Cell toxicity (dead cells, size <150 μm2) in LPS assay. The note with it: for IC50: read-out: Cell Toxicity IC50 (uM) [LPS assay].
Series [7] relates to primary rat microglia. The experiment in a line: Cell toxicity (dead cells, size <150 μm2) in coated fibrin (cFib) assay.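 For Fibrin % cell toxicity: share of dead cells sized under 150 µm2 at 10 µM in fibrin-stimulated microglia HTS.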
The mark [8] stands for this setting: 48 h, Table 1, dose response 0.001-20 μM, triplicates, primary rat microglia, 48 h, read-out: Fibrin IC50.
The mark [9] stands for this setting: Table 3, read-out: Fibrin IC50 (uM) (Suppl. Table 7).
Where [10] appears, read: dose response, fibrin-induced microglia activation, read-out: Fibrin IC50.
Setting [11] is: fibrin-induced microglia activation, dose response, read-out: Fibrin IC50 (uM) (Suppl. Table 7).
Where [12] appears, read: primary microglia HTS, fibrin stimulation, increased cell size (>800 μm^2) as marker of activation.
[13] abbreviates: 48 h, Table 1, dose response 0.001-20 μM, triplicates, primary rat microglia, 48 h, read-out: LPS IC50.
Where [14] appears, read: 48 h, primary microglia HTS, LPS stimulation, increased cell size (>800 μm^2) as marker of activation.
Where [15] appears, read: LPS-induced microglia activation, dose response, read-out: LPS IC50 (uM) (Suppl. Table 7).
Where [16] appears, read: Table 3, read-out: LPS IC50 (uM) (Suppl. Table 7).
Setting [17] is: dose response, LPS-induced microglia activation, read-out: LPS IC50.
Setting [18] is: HTS of 1907 compounds, quadrant by fibrin and LPS inhibition.
Where [19] appears, read: Microglia, Table 3, read-out: Cherry-picked Hit (Suppl. Table 7).
Where [20] appears, read: Microglia, HTS hit classification, read-out: Hit.
[21] abbreviates: quadrant by fibrin and LPS inhibition in HTS of 1907 compounds.
Where [22] appears, read: primary microglia HTS, LPS stimulation, decreased size (<150 μm^2) as marker of toxicity.
Setting [23] is: primary microglia HTS, fibrin stimulation, decreased size (<150 μm^2) as marker of toxicity.
The mark [24] stands for this setting: hit classification in microglia HTS, read-out: Cherry-picked Hit (Suppl. Table 7).
Setting [25] is: primary HTS, 10 μM, fibrin-stimulated primary microglia.
The mark [26] stands for this setting: primary HTS, 10 μM, LPS-stimulated primary microglia.

As to `S=C=NCc1ccccc1` [Benzyl isothiocyanate, reference compound], the “Fibrin Selectivity” value in series [1] came out at 2. For the same compound, the “Fibrin Selectivity (LOG10)” value in series [1] worked out at 0.29. For the same compound, the IC50 in series [1] (setting [8]) is 10 µM; in series [1] (setting [9]), 10 µM; in series [1] (setting [10]), 10 µM; in series [1] (setting [11]) it was 10 µM; in series [2] (setting [13]) it was more than 20 µM; in series [2] (setting [15]) it was more than 20 µM. Further, the IC50 (in series [2] (setting [16]); in series [2] (setting [17]); in “in vitro [4]” (Table 3); in the series “in vitro [4]” (cFib assay); in “in vitro [5]”; in the series with primary rat microglia [6] (LPS assay)) was more than 20 µM in each case. Also, the inhibition at 10 µM was 77% in series [1] (setting [12]), 68% in series [2] (setting [14]), more than 50% in series [3] (setting [19]) and more than 50% in series [3] (setting [20]). The “Quadrant (FIG. 5b)” value in series [3] (setting [18]) was “Q2”; in series [3] (Table 1, screen at 10 μM), “Q2”; in series [3] (Table 3, screen at 10 μM), “Q2”; in series [3] (setting [21]) it was “Q2”. The “LPS % cell toxicity” value in the series with primary rat microglia [6] (setting [22]) amounted to 2%. For the same compound, the “Fibrin % cell toxicity” value in the series on primary rat microglia [7] (setting [23]) was determined as 2%.

Take `CCCCC(=O)O[C@]1(C(=O)CO)[C@@H](C)C[C@H]2[C@@H]3CCC4=CC(=O)C=C[C@]4(C)[C@@]3(F)[C@@H](O)C[C@@]21C` [Betamethasone valerate, reference compound]: the IC50 is 20 µM in series [1] (setting [8]); 20 µM in series [1] (setting [10]); 20 µM in series [1] (setting [11]); more than 20 µM in series [2] (setting [13]); more than 20 µM in series [2] (setting [15]); more than 20 µM in series [2] (setting [17]). The IC50 in “in vitro [4]” (cFib assay) and in the series “in vitro [5]” was more than 20 µM each time. For the same compound, the inhibition at 10 µM in series [1] (setting [12]) is 69%; in series [2] (setting [14]), 55%; in series [3] (setting [20]), more than 50%; in series [3] (setting [24]) it was more than 50%. The “Quadrant (FIG. 5b)” value is listed as “Q2” in series [3] (setting [18]); “Q2” in series [3] (Table 1, screen at 10 μM); “Q2” in series [3] (setting [21]). Further, the “LPS % cell toxicity” value in the series on primary rat microglia [6] (setting [22]) worked out at 1%. Moreover, the “Fibrin % cell toxicity” value in the series on primary rat microglia [7] (setting [23]) was found to be 1%.

With `C[C@H]1C[C@H]2[C@@H]3CCC4=CC(=O)C=C[C@]4(C)[C@@]3(F)[C@@H](O)C[C@]2(C)[C@@]1(O)C(=O)CO` [Betamethasone, reference compound], the IC50 is less than 0.001 µM in series [1] (setting [8]); less than 0.001 µM in series [1] (setting [9]); 0.002 µM in series [1] (Table 7, read-out: fib_IC50); less than 0.001 µM in series [1] (setting [10]); less than 0.001 µM in series [1] (setting [11]); 0.01 µM in series [2] (setting [13]). The IC50 was 0.01 µM in series [2] (setting [15]); 0.01 µM in series [2] (setting [16]); 0.002 µM in series [2] (Table 7, read-out: LPS_IC50); 0.01 µM in series [2] (setting [17]); more than 20 µM in the series “in vitro [4]” (Table 3); more than 20 µM in “in vitro [4]” (cFib assay). In addition, the IC50 is more than 20 µM in the series “in vitro [5]”; more than 20 µM with primary rat microglia [6] (LPS assay); 2.08 µM in the series with primary rat microglia [7] (Rattus norvegicus, Microglia, read-out: dead_IC50 (uM), Table 7, fibrin or LPS assay not specified). Moreover, the inhibition at 10 µM in series [1] (setting [25]) is -4%; in series [1] (setting [12]), 103%; in series [2] (setting [14]), 94%; in series [2] (setting [26]), -9%; in series [3] (setting [19]), more than 50%; in series [3] (setting [20]) it was more than 50%. Further, the “Quadrant (FIG. 5b)” value is “Q2” in series [3] (setting [18]); “Q2” in series [3] (Table 1, screen at 10 μM); “Q2” in series [3] (Table 2, screen at 10 μM); “Q2” in series [3] (Table 3, screen at 10 μM); “Q4” in series [3] (primary HTS, 10 μM); “Q2” in series [3] (setting [21]).

As for `NCCc1cc[nH]n1` [Betazole hydrochloride, reference compound], the “Fibrin Selectivity” value in series [1] stood at 2. Further, the “Fibrin Selectivity (LOG10)” value in series [1] was determined as 0.22. The IC50 in series [1] (setting [8]) was 12 µM; in series [1] (setting [9]), 12 µM; in series [1] (setting [10]), 12 µM; in series [1] (setting [11]), 12 µM; in series [2] (setting [13]), more than 20 µM; in series [2] (setting [15]), more than 20 µM. In addition, the IC50 (in series [2] (setting [16]); in series [2] (setting [17]); in the series “in vitro [4]” (Table 3); in the series “in vitro [4]” (cFib assay); in the series “in vitro [5]”; with primary rat microglia [6] (LPS assay)) was more than 20 µM throughout. The inhibition at 10 µM is 59% in series [1] (setting [12]), 38% in series [2] (setting [14]), more than 50% in series [3] (setting [19]) and more than 50% in series [3] (setting [20]). Also, the “Quadrant (FIG. 5b)” value is “Q3” in series [3] (setting [18]); “Q3” in series [3] (Table 1, screen at 10 μM); “Q3” in series [3] (Table 3, screen at 10 μM); “Q3” in series [3] (setting [21]). Further, in the series on primary rat microglia [6] (setting [22]), the “LPS % cell toxicity” value worked out at 1%. The “Fibrin % cell toxicity” value in the series on primary rat microglia [7] (setting [23]) came to 1%.

As for `CC(=O)O[C@]1(C(C)=O)CC[C@H]2[C@@H]3C=C(Cl)C4=CC(=O)CC[C@]4(C)[C@H]3CC[C@@]21C` [Chlormadinone acetate, reference compound], the inhibition at 10 µM in series [1] (setting [12]) is 72%; in series [2] (setting [14]), 43%; in series [3] (setting [20]) it was more than 50%; in series [3] (setting [24]) it was more than 50%. Also, the IC50 (in series [2] (setting [13]); in series [2] (setting [15]); in series [2] (setting [17]); in “in vitro [4]” (cFib assay); in “in vitro [5]”) was more than 20 µM in each case. In addition, the “Quadrant (FIG. 5b)” value in series [3] (setting [18]) is reported as “Q3”; in series [3] (Table 1, screen at 10 μM), “Q3”; in series [3] (setting [21]), “Q3”. Besides, in the series on primary rat microglia [6] (setting [22]), the “LPS % cell toxicity” value is reported as 0%. For the same compound, in the series with primary rat microglia [7] (setting [23]), the “Fibrin % cell toxicity” value is recorded as 1%.

Take `NS(=O)(=O)c1cc(C2(O)NC(=O)c3ccccc32)ccc1Cl` (stereo not shown) [Chlorthalidone, reference compound]: the IC50 in series [1] (setting [8]), in series [1] (setting [10]), in series [1] (setting [11]), in series [2] (setting [13]), in series [2] (setting [15]) and in series [2] (setting [17]) was more than 20 µM throughout. The IC50 in “in vitro [4]” (cFib assay) and in the series “in vitro [5]” was more than 20 µM in each case. The inhibition at 10 µM in series [1] (setting [12]) was 77%; in series [2] (setting [14]), 35%; in series [3] (setting [20]), more than 50%; in series [3] (setting [24]), more than 50%. In addition, the “Quadrant (FIG. 5b)” value in series [3] (setting [18]) is listed as “Q3”; in series [3] (Table 1, screen at 10 μM), “Q3”; in series [3] (setting [21]), “Q3”. In addition, the “LPS % cell toxicity” value in the series on primary rat microglia [6] (setting [22]) is reported as 1%. In addition, the “Fibrin % cell toxicity” value in the series with primary rat microglia [7] (setting [23]) is recorded as 2%.

For the compound `CCC(=O)O[C@]1(C(=O)CCl)[C@@H](C)C[C@H]2[C@@H]3CCC4=CC(=O)C=C[C@]4(C)[C@@]3(F)[C@@H](O)C[C@@]21C` [Clobetasol propionate, reference compound], the IC50 in series [1] (setting [8]), in series [1] (setting [10]), in series [1] (setting [11]), in series [2] (setting [13]), in series [2] (setting [15]) and in series [2] (setting [17]) was less than 0.001 µM throughout. For the same compound, the IC50 in the series “in vitro [4]” (cFib assay) and in “in vitro [5]” was more than 20 µM throughout. Besides, the inhibition at 10 µM is -22% in series [1] (setting [25]); 108% in series [1] (setting [12]); 105% in series [2] (setting [14]); 30% in series [2] (setting [26]); more than 50% in series [3] (setting [20]); more than 50% in series [3] (setting [24]). The “Quadrant (FIG. 5b)” value in series [3] (setting [18]) was “Q2”; in series [3] (Table 1, screen at 10 μM), “Q2”; in series [3] (primary HTS, 10 μM), “Q4”; in series [3] (setting [21]), “Q2”. In addition, the “LPS % cell toxicity” value turned out to be 2% with primary rat microglia [6] (primary HTS, 10 μM, LPS assay, dead cells size <150 μm2) and 3% in the series on primary rat microglia [6] (setting [22]). Besides, the “Fibrin % cell toxicity” value with primary rat microglia [7] (primary HTS, 10 μM, fibrin assay, dead cells size <150 μm2) is listed as 1%; in the series on primary rat microglia [7] (setting [23]), 3%.
